# Reference: patent US7052672B2, “Stabilized radiopharmaceutical compositions” (GE Healthcare Limited, priority 2000, dated 2006)
# What was measured:
# [1] = paraben with M=H; at 25° C.; cited from earlier work
# [2] = 13C NMR investigation of the reaction between ascorbic acid and methylparaben; assay type: physicochemical
# Description: Small portions of powdered sodium hydroxide were added with agitation to adjust the pH. At 3 defined pH's (pH 7.5, 8.8 and 9.6), a representative aliquot (0.5 cm^3) was transferred to an NMR tube. The 3 sampled reaction mixtures were monitored daily for one week by ^13C NMR When not being monitored, the mixtures were stored at room temperature protected from light. At the end of the monitoring period a small quantity of methanol was added to the solution to confirm that, if hydrolysis had occurred, the ^13C NMR signal for any methanol produced by transesterification would have been well separated from that for the initial methyl ester resonance.
# The ^13C NMR spectra were obtained using a JEOL EX270 NMR spectrometer with a broad-band tuneable probe operating at a frequency of 67.94 MHz. The data for each spectrum was acquired over a period of about 30 min.
# An aliquot (0.5 cm^3) of the colourless solution was removed and monitored by ^13C NMR spectroscopy. As part of the monitoring process the sample was placed in a Bruker AM250 NMR spectrometer after 29 hours and its ^13C NMR spectrum accumulated over a period of 16 hours. […] A small quantity of methanol was then added to the sample as a reference peak.
structure (smiles),measurement,setting,value
"CCOC(=O)c1ccc(O)cc1 [ethylparaben, Ethylparaben]",solubility in water,[1],"0.070% w/w at 25° C.,"
"COC(=O)c1ccc(O)cc1 [methylparaben, Methylparaben]",additional components from interaction of ascorbic acid and methylparaben (13C NMR),"[2]; Experiment B, pH 9.5, spectrum started after 29 hours, accumulated over 16 hours",no significant quantities of any additional components had been produced
same,formation of methanol from hydrolysis of methylparaben (13C NMR),"[2]; Experiment B, pH 9.5, with ascorbic acid, after 29 hours, accumulated 16 hours",no evidence for the formation of any methanol
same,reaction with ascorbic acid or hydrolysis (13C NMR),[2]; even at pH approximately 9.6 after 7 days,"no evidence was found from ^13C NMR studies for any significant reaction between ascorbic acid and methylparaben, or any significant hydrolysis"
